Data reported in US4360511A, “Amines useful as brain imaging agents” (Medi-Physics, Inc., priority 1980, dated 1982).
Read-outs that look alike come from different tables or passages of the source.

Assays:
[1] = Friedman et al, July 1978; cited from earlier work
[2] = Robinson et al, J Nucl Med 17, p 1093 (1976); cited from earlier work
[3] = Bioassay: distribution of I-123-labeled compounds in organs of rats after tail vein injection (percent dose/gram, brain/blood ratio); assay type: in vivo, Female Sprague-Dawley rats; settings: for tissue uptake at 1 h / tissue uptake at 5 min: rat, iv, 0.05 to 1.0 mCi, two rats; for Brain/Blood Ratio 5 min. / tissue uptake at 5 min: 5 minutes post-injection
Description: Female Sprague-Dawley rats weighing approximately 150 g were anesthetized with sodium pentobarbital and were injected in a tail vein with from 0.05 to 1.0 mCi (in a volume of 0.2 to 0.5 ml) of the I-123-labeled compound. Two specimens were utilized for each test.
Two animals each were sacrificed at 5 minutes and 60 minutes post-injection, the tails discarded and the amount of activity in various organs determined. Each organ was counted at a standardized geometry with a sodium iodide crystal scintillation counter adjusted for the 159 keV emission of I-123. The organs were also weighed to one thousandth of a gram and the activity calculated as a percent of administered dose per gram of organ weight.
The ratio of brain-to-blood activity was calculated as a percent of administered dose per gram.

[4] = blood, 60 minutes post-injection, read-out: Percent Dose/Gram Blood 60 min.
[5] = brain, 60 minutes post-injection, read-out: Percent Dose/Gram Brain 60 min.
[6] = heart, 60 minutes post-injection, read-out: Percent Dose/Gram Heart 60 min.
[7] = blood, read-out: Percent Dose/Gram Blood 5 min.
[8] = brain, read-out: Percent Dose/Gram Brain 5 min.
[9] = heart, read-out: Percent Dose/Gram Heart 5 min.

| Compound | activity carried across the blood/brain barrier [1] | decarboxylation in vivo [1] | concentration in the brain [2] | in vivo deiodination [2] | tissue uptake at 1 h [3, 4] [%ID/g] | tissue uptake at 1 h [3, 5] [%ID/g] | tissue uptake at 1 h [3, 6] [%ID/g] | Brain/Blood Ratio 5 min. [3] | tissue uptake at 5 min [3, 7] [%ID/g] | tissue uptake at 5 min [3, 8] [%ID/g] | tissue uptake at 5 min [3, 9] [%ID/g] | Brain/Blood Ratio 60 min. ([3]; 60 minutes post-injection) |
| --- | --- | --- | --- | --- | --- | --- | --- | --- | --- | --- | --- | --- |
| 5-hydroxytryptophan | carried some activity across the blood/brain barrier | decarboxylated in vivo | – | – | – | – | – | – | – | – | – | – |
| Cc1c([123I])c(=O)n(-c2ccccc2)n1C [I--123-iodoantipyrine, I-123 labeled 4-iodoantipyrine, reference compound] | – | – | suboptimal concentration in the brain | rapid in vivo deiodination | 0.94 | 0.17 | 0.53 | – | – | – | – | – |
| NC(=O)C(Nc1ccc([123I])cc1)c1ccccc1 (stereo not drawn) [I--123-α-(p-iodoanilino)phenylacetamide] | – | – | – | – | – | – | – | 1.30 | 0.71 | 0.92 | 1.42 | – |
| N#CC(N)c1ccccc1[123I] (stereo not drawn) [I--123-α-amino-o-iodophenylacetonitrile] | – | – | – | – | – | – | – | 1.74 | 0.34 | 0.58 | 0.86 | – |
| N#CC(Nc1ccccc1)c1ccccc1[123I] (stereo not drawn) [I--123-α-anilino-o-iodophenylacetonitrile] | – | – | – | – | 0.1 | 0.14 | 0.24 | 4.68 | 0.17 | 0.8 | 0.9 | 1.41 |
